The target of series [1] is T1, adenosine A1 receptor in rat brain cortex (Rattus norvegicus, UniProt P25099).
T1 construct: the adenosine A1 receptor in rat brain cortex; from tissue; host or cells: rat brain cortex
T1 sequence (P25099 1-326): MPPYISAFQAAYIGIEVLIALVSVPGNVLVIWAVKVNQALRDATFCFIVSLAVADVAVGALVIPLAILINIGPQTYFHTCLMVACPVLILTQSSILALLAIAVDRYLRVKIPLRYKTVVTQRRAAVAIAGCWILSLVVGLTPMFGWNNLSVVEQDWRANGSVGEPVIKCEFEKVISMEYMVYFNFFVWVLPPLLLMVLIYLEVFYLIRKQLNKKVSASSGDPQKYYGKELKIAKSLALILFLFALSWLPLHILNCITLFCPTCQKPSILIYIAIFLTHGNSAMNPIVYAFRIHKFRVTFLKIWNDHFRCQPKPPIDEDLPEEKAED
Description: Radioligand binding, displacement of [3H]DPCPX from rat cortical membranes. Conditions: ligand 10^−5 M. (In a radioligand displacement assay an active substance lowers the binding of a labelled ligand.)
Description: (§1) Incubations were carried out for 1 hr at 37° C. and were terminated by rapid filtration over Whatman GF/B filters, using a Brandell cell harvester (Brandell, Gaithersburg, Md.). Tubes were washed three times with 3 ml of buffer. Radioactivity was determined in a Beckman 5500B γ-counter. Nonspecific binding was determined in the presence of 10^−5 M R-PIA.
(§2) All compounds were tested in radioligand binding assays to determine their affinities for the adenosine A1 receptor in rat brain cortex, the A2A receptor in rat striatum and the human A3 receptor as expressed in HEK 293 cells (Table 2). […] AB-MECA, an A3 receptor agonist, was also used. Displacement experiments were performed in the absence of GTP.

For series [2], the target named is T2, human adenosine A3 receptor (Homo sapiens, UniProt P0DMS8).
T2 construct: expressed in transfected cells; HEK 293 cells according to b145 and b219
T2 sequence (P0DMS8 1-318): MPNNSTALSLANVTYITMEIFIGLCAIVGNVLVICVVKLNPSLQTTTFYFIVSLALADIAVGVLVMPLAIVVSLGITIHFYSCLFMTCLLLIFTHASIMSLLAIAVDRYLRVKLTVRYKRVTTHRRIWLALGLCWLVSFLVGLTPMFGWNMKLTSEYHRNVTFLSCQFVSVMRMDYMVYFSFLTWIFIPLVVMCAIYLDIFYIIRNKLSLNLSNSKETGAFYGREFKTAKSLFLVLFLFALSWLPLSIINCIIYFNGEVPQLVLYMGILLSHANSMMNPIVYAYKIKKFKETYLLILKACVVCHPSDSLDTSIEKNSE
The series can be described thus: cAMP assay A3 (inhibition of forskolin-induced cAMP production). Type of series: cell-based. Background: Changes in cAMP serve as a functional read-out for many G protein-coupled receptors.
Description: cAMP assay A3 CHO cells expressing the human adenosine A3 receptor were grown overnight as a monolayer in 24 wells tissue culture plates (400 μl/well; 2×10^5 cells/well). cAMP generation was performed in Dulbecco's Modified Eagles Medium (DMEM)/N-2-hydroxyethylpiperazin-N′-2-ethansulfonic acid (HEPES) buffer (0.60 g HEPES/50 ml DMEM pH 7.4). […] After incubation for 40 minutes at 37° C., 100 μl forskolin (final concentration 10 μM) was added. After 15 minutes at 37° C., the reaction was terminated by removing the medium and adding 200 μl 0.1 M HCl. Wells were stored at −20° C. until assay. The amounts of cAMP were determined after a protocol with cAMP binding protein^36 with the following minor modifications. As a buffer was used 150 mM K2HPO4/10 mM EDTA/0.2% Bovine Serum Albumine (BSA) at pH 7.5. Samples (20 μl+30 μl 0.1 M HCl) were incubated for at least 2.5 hours at 0° C. before filtration over Whatman GF/B filters. […] Filters were counted in Packard Emulsifier Safe scintillation fluid (3.5 ml) after 24 hours of extraction.
All compounds were also tested in functional assays.
The ability of the compounds to inhibit forskolin-stimulated (10 μM) cAMP production via the adenosine A3 receptor was also studied.
The amounts of cAMP were determined after a protocol with cAMP binding protein^28 with the following minor modifications. As a buffer was used 150 mM K2HPO4/10 mM EDTA/0.2% Bovine Serum Albumine (BSA) at pH 7.5. Samples (20 μl+30 μl 0.1 M HCl) were incubated for at least 2.5 hours at 0° C. before filtration over Whatman GF/B filters. […] Filters were counted in Packard Emulsifier Safe scintillation fluid (3.5 ml) after 24 hours of extraction.

In series [3] the target is T3, A2A receptor in rat striatum (Rattus norvegicus, UniProt P30543).
T3 construct: the A2A receptor in rat striatum; from tissue; host or cells: rat striatum
T3 sequence (P30543 whole entry): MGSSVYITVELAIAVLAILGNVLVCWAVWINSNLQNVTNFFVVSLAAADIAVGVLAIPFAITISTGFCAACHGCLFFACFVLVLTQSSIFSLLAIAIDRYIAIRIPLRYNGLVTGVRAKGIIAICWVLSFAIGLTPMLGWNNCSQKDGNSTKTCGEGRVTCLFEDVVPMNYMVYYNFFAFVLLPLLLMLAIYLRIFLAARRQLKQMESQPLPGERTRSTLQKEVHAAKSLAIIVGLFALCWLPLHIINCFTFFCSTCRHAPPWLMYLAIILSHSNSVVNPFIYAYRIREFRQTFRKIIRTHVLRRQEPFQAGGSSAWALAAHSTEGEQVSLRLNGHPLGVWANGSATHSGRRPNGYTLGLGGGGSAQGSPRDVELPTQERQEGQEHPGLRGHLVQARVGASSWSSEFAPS
Description: Radioligand binding, displacement of [3H]ZM241385 from rat striatal membranes.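 Further: displacement assays run in the absence of GTP.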 The settings on record: [3H]ZM241385, rat striatal membranes.
Description: as §1, §2

The target of series [4] is T4, human A3 receptor as expressed in HEK 293 cells (Homo sapiens, UniProt P0DMS8).
T4 construct: expressed in transfected cells; host or cells: HEK 293 cells (membrane suspension)
T4 sequence (P0DMS8 1-318): T2 sequence (P0DMS8 1-318)
The series can be described thus: Radioligand binding, displacement of [125I]AB MECA, HEK 293 cell membranes.
Description: as §1, §2

Series [5] deals with T5, human adenosine A2A receptors expressed in CHO cells (Homo sapiens, UniProt P29274).
T5 construct: expressed in transfected cells; host or cells: CHO cells
T5 sequence (P29274 whole entry): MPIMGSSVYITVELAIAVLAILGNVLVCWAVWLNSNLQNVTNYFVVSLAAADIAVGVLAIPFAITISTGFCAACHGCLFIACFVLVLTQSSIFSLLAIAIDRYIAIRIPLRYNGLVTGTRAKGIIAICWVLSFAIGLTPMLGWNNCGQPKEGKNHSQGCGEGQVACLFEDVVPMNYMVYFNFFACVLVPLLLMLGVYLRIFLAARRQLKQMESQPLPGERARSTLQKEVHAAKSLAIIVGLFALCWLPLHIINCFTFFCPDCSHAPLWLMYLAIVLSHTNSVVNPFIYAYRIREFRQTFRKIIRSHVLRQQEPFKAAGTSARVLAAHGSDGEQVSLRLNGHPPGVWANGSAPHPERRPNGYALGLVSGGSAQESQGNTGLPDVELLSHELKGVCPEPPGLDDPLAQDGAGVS
Description: cAMP assay A2A (stimulation of cAMP production). Type of series: cell-based. Conditions: for Emax: CHO, read-out: Emax (%) A2A; for EC50: cAMP production, human A2A in CHO cells.
Description: cAMP assay A2A CHO cells expressing human adenosine A2A receptors were grown overnight as a monolayer in 24 wells tissue culture plates (400 μL/well; 2×10^5 cells/well). cAMP generation was performed in Dulbecco's Modified Eagles Medium (DMEM)/N-2-hydroxyethylpiperazin-N′-2-ethanesulfonic acid (HEPES) buffer (0.60 g HEPES/50 mL DMEM pH 7.4). To each well, washed three times with DMEM/HEPES buffer (250 μλ), 100 μl DMEM/HEPES buffer, 100 μl adenosine deaminase (final concentration 5 IU/ml) and 100 μl of a mixture of rolipram and cilostamide (final concentration 50 μM each) were added. After incubation for 40 minutes at 37° C., 100 μl agonist was added. […] After 15 minutes at 37° C., the reaction was terminated by removing the medium and adding 200 μl 0.1 M HCl. Wells were stored at −20° C. until assay.
The amounts of cAMP were determined after a protocol with cAMP binding protein^36 with the following minor modifications. As a buffer was used 150 mM K2HPO4/10 mM EDTA/0.2% Bovine Serum Albumine (BSA) at pH 7.5. Samples (20 μl+30 μl 0.1 M HCl) were incubated for at least 2.5 hours at 0° C. before filtration over Whatman GF/B filters. […] Filters were counted in Packard Emulsifier Safe scintillation fluid (3.5 ml) after 24 hours of extraction.
Data Analysis Apparent Ki and EC50 values were computed from the displacement curves by non-linear regression of the competition curves with the software package Prism (Graph Pad, San Diego, Calif.)

Series [6] has as its target T6, human adenosine A1 receptors expressed in CHO cells (Homo sapiens, UniProt P30542).
T6 construct: expressed in transfected cells; host or cells: CHO cells
T6 sequence (P30542 1-326): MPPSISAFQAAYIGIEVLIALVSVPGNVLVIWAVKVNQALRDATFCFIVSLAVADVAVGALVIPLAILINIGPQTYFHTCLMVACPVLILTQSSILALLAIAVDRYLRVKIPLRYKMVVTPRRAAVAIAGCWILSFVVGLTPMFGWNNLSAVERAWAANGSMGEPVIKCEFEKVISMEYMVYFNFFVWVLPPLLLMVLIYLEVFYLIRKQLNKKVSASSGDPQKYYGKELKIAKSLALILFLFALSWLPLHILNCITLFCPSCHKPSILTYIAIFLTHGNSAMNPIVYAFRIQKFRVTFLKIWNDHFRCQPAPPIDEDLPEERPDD
The series can be described thus: cAMP assay A1 (inhibition of forskolin-induced cAMP production). It counts as cell-based. Conditions: compared to reference full agonist CPA (10 μM) in A1 CHO cells; tested at ±100 × Ki; ±SEM, n = 3; forskolin 10 μM. How it is done: cAMP assay A1 and A3 CHO cells expressing either the human adenosine A1 or A3 receptor were grown overnight as a monolayer in 24 wells tissue culture plates (400 μl/well; 2×10^5cells/well). cAMP generation was performed in Dulbecco's Modified Eagles Medium (DMEM)/N-2-hydroxyethylpiperazin-N′-2-ethansulfonic acid (HEPES) buffer (0.60 g HEPES/50 ml DMEM pH 7.4). […] After incubation for 40 minutes at 37° C., 100 μl forskolin (final concentration 10 μM) was added. After 15 minutes at 37° C., the reaction was terminated by removing the medium and adding 200 μL 0.1 M HCl. Wells were stored at −20° C. until assay
The amounts of cAMP were determined after a protocol with cAMP binding protein^28 with the following minor modifications. As a buffer was used 150 mM K2HPO4/10 mM EDTA/0.2% Bovine Serum Albumine (BSA) at pH 7.5. Samples (20 μl+30 μl 0.1 M HCl) were incubated for at least 2.5 hours at 0° C. before filtration over Whatman GF/B filters. Filters were additionally rinsed with 2×2 ml TrisHCl buffer (pH 7.4, 4° C.). Filters were counted in Packard Emulsifier Safe scintillation fluid (3.5 ml) after 24 hours of extraction. […]

On to `CC(C)CC=NNc1nc(N)c2ncn([C@@H]3O[C@H](CSC(C)C)[C@@H](O)[C@H]3O)c2n1` [Compound 48, 5′-Deoxy-2-(N′-3-methyl-1-butylidenehydrazino)-5′-isopropylthioadenosine], for which, in series [1], the “% displacement at 10^−5 M A1” value turned out to be 13.0%. The maximum response (Emax) (commonly the greatest response seen or fitted, relative to the assay's reference) at 30 µM in series [2] (read-out: Emax (%) A3) turned out to be 26%. Further, the Ki (usually a measure of affinity in units of concentration, obtained from inhibition or displacement) in series [3] came out at 1800 ± 230 nM; in series [4], 409 ± 118 nM. Besides, the maximal response (Emax) in series [5] turned out to be 56 ± 1%. The response in series [5] was half-maximal at 10.4 ± 1 µM (EC50).

For the compound `CCOC[C@H]1O[C@@H](n2cnc3c(N)ncnc32)[C@H](O)[C@@H]1O` [Compound 72, 5′-O-Ethyladenosine], the melting point (commonly the temperature of the solid-liquid transition) lay within 110 to 112 °C. In addition, affinity in series [3] was put at a Ki of 415 ± 69 nM. Also, in series [6], the “% inhib. A1 of forskolin-induced cAMP” value was found to be 57 ± 11%.

The compound `COC[C@H]1O[C@@H](n2cnc3c(N)ncnc32)[C@H](O)[C@@H]1O` [Compound 66, 5′-O-methyladenosine] returned a melting point of 112 to 114 °C. In addition, in series [3], the Ki turned out to be 261 ± 65 nM. Moreover, the “% inhib. A1 of forskolin-induced cAMP” value in series [6] is on record as 75 ± 3%.

As for `CC(C)CC=NNc1nc(N)c2ncn([C@@H]3O[C@H](CO)[C@@H](O)[C@H]3O)c2n1` [Compound 3, 2-(N′-3-Methyl-1-butylidenehydrazino)adenosine], the “% displacement at 10^−5 M A1” value in series [1] worked out at 18.9%. Further, in series [2] (compared to reference full agonist Cl-IB-MECA), the “agonist behaviour, inhibition of forskolin-induced cAMP via adenosine A3 receptor” value was “partial agonist”. Also, the maximal effect (Emax) at 3 µM in series [2] (read-out: Emax (%) A3) amounted to 24%. The inhibition constant (Ki) in series [3] turned out to be 20 ± 7 nM. The Ki in series [4] was 38.3 ± 3.3 nM. Also, in series [5], the maximal effect (Emax) came out at 92 ± 2% and the response was half-maximal at 1.1 ± 0.2 µM (EC50). Besides, the “agonist behaviour, cAMP production via adenosine A2A receptor” value in series [5] (compared to full agonist CGS 21680) was “full agonists”.

As to `Nc1nc(Cl)nc2c1ncn2[C@@H]1O[C@H](COC2CC2)[C@@H](O)[C@H]1O` [Compound 81, 2-Chloro-5′-O-cyclopropyladenosine], the melting point fell in the range of 122 to 124 °C. The compound further came in with a Ki in series [3] of 885 ± 89 nM. Further, the “% inhib. A1 of forskolin-induced cAMP” value in series [6] is given as 49 ± 9%.

For the compound `CCOC[C@H]1O[C@@H](n2cnc3c(N)nc(Cl)nc32)[C@H](O)[C@@H]1O` [Compound 75, 2-Chloro-5′-O-ethyladenosine], the melting point was 117 to 119 °C. Moreover, the Ki in series [3] was found to be 659 ± 168 nM. The “% inhib. A1 of forskolin-induced cAMP” value in series [6] came out at 67 ± 7%.

For the compound `COC[C@H]1O[C@@H](n2cnc3c(N)nc(Cl)nc32)[C@H](O)[C@@H]1O` [Compound 69, 2-Chloro-5′-O-methyladenosine], the melting point lay in the range of 200 to 202 °C. Also, the affinity in series [3], expressed as Ki, was 284 ± 55 nM. Further, in series [6], the “% inhib. A1 of forskolin-induced cAMP” value turned out to be 78 ± 4%.

These data come from patent US7084127B2, “C2,5′-disubstituted and N6, C2,5′-trisubstituted adenosine derivatives and their different uses” (Universiteit Leiden, priority 2001, dated 2006).
